These results are taken from patent publication US11046658B2, “Aminopyrazine derivatives as PI3K-γ inhibitors” (Incyte Corporation, priority 2018, dated 2021).

Assay [1] deals with PI3Kγ (p110γ) Recombinant Human Protein (Homo sapiens (Human), UniProt P48736). The assay can be described thus: PI3K-γ Scintillation Proximity Assay. The assay is classed as biochemical. Particulars: 2 μM ATP, 20 μM PIP2. From the text: Materials: [γ-^33P]ATP (10 mCi/mL) and Wheat Germ Agglutinin (WGA) YSi SPA Scintillation Beads was purchased from Perkin Elmer (Waltham, Mass.). Lipid kinase substrate, D-myo-Phosphatidylinositol 4,5-bisphosphate (PtdIns(4,5)P2)D (+)-sn-1,2-di-O-octanoylglyceryl, 3-O-phospho linked (PIP2), CAS 204858-53-7, was purchased from Echelon Biosciences (Salt Lake City, Utah). PI3Kγ (p110γ) Recombinant Human Protein was purchased from Life technology (Grand Island, N.Y.). ATP, MgCl2, DTT, EDTA, MOPS and CHAPS were purchased from Sigma Aldrich (St. Louis, Mo.).
Chain of PI3Kγ (p110γ) Recombinant Human Protein (P48736 whole entry): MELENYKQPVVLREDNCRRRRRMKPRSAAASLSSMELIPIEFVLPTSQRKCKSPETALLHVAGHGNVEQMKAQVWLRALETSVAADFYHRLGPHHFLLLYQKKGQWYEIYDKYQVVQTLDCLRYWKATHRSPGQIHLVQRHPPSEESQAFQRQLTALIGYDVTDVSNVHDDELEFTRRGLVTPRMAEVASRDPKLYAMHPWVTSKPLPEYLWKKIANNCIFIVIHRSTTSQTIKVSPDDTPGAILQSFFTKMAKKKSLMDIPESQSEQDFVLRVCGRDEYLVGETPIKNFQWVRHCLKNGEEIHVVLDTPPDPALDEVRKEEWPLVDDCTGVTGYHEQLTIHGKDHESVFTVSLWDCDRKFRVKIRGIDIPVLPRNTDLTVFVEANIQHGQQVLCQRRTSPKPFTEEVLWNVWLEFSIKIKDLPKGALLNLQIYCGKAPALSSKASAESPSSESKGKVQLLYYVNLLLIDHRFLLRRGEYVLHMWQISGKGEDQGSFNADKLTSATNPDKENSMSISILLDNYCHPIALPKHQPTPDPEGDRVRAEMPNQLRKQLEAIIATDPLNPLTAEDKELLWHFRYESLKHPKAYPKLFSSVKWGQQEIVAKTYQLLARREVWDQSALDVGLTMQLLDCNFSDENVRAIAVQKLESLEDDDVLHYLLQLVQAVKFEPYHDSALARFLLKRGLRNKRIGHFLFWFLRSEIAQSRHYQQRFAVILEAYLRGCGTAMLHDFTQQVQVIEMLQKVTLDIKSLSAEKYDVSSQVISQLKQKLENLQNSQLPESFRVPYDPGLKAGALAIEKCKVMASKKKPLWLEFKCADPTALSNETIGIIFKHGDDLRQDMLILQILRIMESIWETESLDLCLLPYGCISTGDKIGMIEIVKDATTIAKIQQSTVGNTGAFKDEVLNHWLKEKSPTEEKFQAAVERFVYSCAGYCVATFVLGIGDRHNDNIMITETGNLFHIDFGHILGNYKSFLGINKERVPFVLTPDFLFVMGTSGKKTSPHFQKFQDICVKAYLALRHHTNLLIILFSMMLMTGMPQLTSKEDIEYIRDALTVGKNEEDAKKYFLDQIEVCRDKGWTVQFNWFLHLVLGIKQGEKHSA
(§1) The kinase reaction was conducted in polystyrene 384-well Greiner Bio-one white plate from Thermo Fisher Scientific in a final volume of 25 μL. Inhibitors were first diluted serially in DMSO and added to the plate wells before the addition of other reaction components. The final concentration of DMSO in the assay was 2%. The PI3Kγ assay was carried out at room temperature in 20 mM MOPS, pH 6.7, 10 mM MgCl2, 5 mM DTT and CHAPS 0.03%. Reactions were initiated by the addition of ATP, the final reaction mixture consisted of 20 μM PIP2, 2 μM ATP, 0.5 μCi [γ-^33P] ATP, 13 nM PI3Kγ. Reactions were incubated for 120 min and terminated by the addition of 40 μL SPA beads suspended in quench buffer: 163 mM potassium phosphate pH 7.8, 20% glycerol, 25 mM EDTA. The final concentration of SPA beads is 1.0 mg/mL. After the plate sealing, plates were shaken overnight at room temperature and centrifuged at 1500 rpm for 10 min, the radioactivity of the product was determined by scintillation counting on Topcount (Perkin-Elmer). IC50 determination was performed by fitting the curve of percent of the solvent control activity versus the log of the inhibitor concentration using the GraphPad Prism 6.0 software.

The target in assay [2] is PI3Kδ (p110δ/p85α) Recombinant Human Protein (Homo sapiens (Human), UniProt O00329). The assay can be described thus: PI3Kδ Scintillation Proximity Assay. The assay is classed as biochemical. Particulars: 2 μM ATP, 20 μM PIP2.
Chain of PI3Kδ (p110δ/p85α) Recombinant Human Protein (O00329 whole entry): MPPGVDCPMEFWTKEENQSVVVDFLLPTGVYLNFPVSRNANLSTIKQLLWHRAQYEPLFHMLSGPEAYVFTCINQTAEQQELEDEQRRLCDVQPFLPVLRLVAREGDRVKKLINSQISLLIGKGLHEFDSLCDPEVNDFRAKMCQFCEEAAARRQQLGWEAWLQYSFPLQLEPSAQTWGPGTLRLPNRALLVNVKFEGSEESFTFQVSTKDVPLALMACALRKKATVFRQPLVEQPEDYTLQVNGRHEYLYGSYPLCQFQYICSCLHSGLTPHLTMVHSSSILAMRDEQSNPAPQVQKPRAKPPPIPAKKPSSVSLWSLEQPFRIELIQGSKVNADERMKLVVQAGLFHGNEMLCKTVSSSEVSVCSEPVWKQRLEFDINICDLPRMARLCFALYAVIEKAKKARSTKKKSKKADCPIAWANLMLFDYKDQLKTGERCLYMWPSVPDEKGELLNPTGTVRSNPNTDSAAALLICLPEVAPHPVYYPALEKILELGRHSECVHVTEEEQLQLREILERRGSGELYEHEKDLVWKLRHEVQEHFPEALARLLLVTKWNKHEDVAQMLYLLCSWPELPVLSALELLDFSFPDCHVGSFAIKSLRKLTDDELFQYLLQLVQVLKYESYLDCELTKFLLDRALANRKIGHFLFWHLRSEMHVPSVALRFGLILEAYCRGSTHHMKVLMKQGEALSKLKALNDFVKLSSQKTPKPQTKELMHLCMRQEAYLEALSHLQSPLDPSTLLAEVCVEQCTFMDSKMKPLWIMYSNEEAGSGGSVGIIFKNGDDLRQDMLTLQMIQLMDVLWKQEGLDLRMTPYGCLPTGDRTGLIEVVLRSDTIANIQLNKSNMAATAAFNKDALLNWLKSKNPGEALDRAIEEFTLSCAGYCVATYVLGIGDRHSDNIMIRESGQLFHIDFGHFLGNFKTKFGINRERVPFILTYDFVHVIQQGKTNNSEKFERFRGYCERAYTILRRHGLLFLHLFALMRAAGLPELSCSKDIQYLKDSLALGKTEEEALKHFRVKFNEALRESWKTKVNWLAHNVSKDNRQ
Chain of PI3Kδ (p110δ/p85α) Recombinant Human Protein (P27986 whole entry partner): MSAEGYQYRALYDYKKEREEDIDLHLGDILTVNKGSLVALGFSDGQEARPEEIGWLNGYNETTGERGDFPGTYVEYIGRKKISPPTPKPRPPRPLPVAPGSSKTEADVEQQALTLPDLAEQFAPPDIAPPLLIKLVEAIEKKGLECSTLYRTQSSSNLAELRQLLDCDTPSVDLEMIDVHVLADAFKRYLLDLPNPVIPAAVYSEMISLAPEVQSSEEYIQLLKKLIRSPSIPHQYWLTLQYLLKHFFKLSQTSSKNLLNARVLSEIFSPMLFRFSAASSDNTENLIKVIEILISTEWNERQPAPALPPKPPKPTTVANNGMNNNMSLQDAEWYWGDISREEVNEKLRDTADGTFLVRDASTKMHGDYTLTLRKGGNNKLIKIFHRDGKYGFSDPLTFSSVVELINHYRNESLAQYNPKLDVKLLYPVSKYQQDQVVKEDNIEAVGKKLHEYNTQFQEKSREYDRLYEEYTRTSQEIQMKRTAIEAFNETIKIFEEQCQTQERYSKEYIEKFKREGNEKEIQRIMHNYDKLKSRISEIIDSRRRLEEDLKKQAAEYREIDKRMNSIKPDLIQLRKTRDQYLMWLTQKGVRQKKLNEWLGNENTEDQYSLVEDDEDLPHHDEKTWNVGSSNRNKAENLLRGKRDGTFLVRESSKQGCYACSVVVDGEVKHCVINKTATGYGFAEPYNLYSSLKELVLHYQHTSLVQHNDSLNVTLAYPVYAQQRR
Description: Materials: [γ-^33P]ATP (10 mCi/mL) and Wheat Germ Agglutinin (WGA) YSi SPA Scintillation Beads was purchased from Perkin Elmer (Waltham, Mass.). Lipid kinase substrate, D-myo-Phosphatidylinositol 4,5-bisphosphate (PtdIns(4,5)P2)D (+)-sn-1,2-di-O-octanoylglyceryl, 3-O-phospho linked (PIP2), CAS 204858-53-7, was purchased from Echelon Biosciences (Salt Lake City, Utah). PI3Kδ (p110δ/p85α) Recombinant Human Protein was purchased from Eurofins (St Charles, Mo.). ATP, MgCl2, DTT, EDTA, MOPS and CHAPS were purchased from Sigma Aldrich (St. Louis, Mo.).
as §1, with “PI3Kδ” for “PI3Kγ”, “3.4” for “13”, “PI3Kδ.” for “PI3Kγ.”, “(PerkinElmer).” for “(Perkin-Elmer).”
(In general: SPA uses beads or plates that emit light when radiolabelled molecules are held near them.)

The test system of assay [3] is Phosphorylated Ribosomal Protein S6 (RPS6) in THP-1 cells. The assay can be described thus: THP-1 RPS6 ELISA Assay. The assay is classed as cell-based, Human. Particulars: THP-1 cells, 10 nM MCP-1, read-out: PI3Kγ_THP1_RPS6_ELISA IC50. Put shortly: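 Cells serum-starved overnight, pre-incubated with compounds 2 h at 37° C, then stimulated with 10 nM MCP-1 for 15 min. Lysates assayed for phospho-RPS6 by ELISA read at 450 nm. IC50 from percent inhibition vs log concentration curve fit.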

Where a name gives a salt, the structure may show the parent alone. Read-outs that look alike come from different tables or passages of the source.

With `CCOC(=O)C1CC(c2nc(-c3cc(C(O)(C(N)=O)C(F)(F)F)ccc3C)cnc2N)C1` (single isomer, unassigned) [Example 109, Ethyl 3-(3-amino-6-(5-(3-amino-1,1,1-trifluoro-2-hydroxy-3-oxopropan-2-yl)-2-methylphenyl)pyrazin-2-yl)cyclobutane-1-carboxylate], the IC50 in assay [1] (Table A4) was less than 100 nM; in assay [2] (Table A4), less than 500 nM.
For the compound `Cc1ccc(C(O)(C(N)=O)C(F)(F)F)cc1-c1cnc(N)c(C2CN(S(=O)(=O)c3cnn(C)c3)C2)n1` (single isomer, unassigned) [Example 107, 2-(3-(5-Amino-6-(1-((1-methyl-1H-pyrazol-4-yl)sulfonyl)azetidin-3-yl)pyrazin-2-yl)-4-methylphenyl)-3,3,3-trifluoro-2-hydroxypropanamide, trifluoroacetate salt], the concentration for half-maximal inhibition (IC50) in assay [1] (Table A4) is less than 100 nM; in assay [2] (Table A4), less than 2000 nM; in assay [3] (Homo sapiens, Table A4) it was less than 1000 nM.
In the case of `CCOC(=O)C1CC(c2nc(-c3cc(C(O)(C(N)=O)C(F)(F)F)ccc3C)cnc2N)C1` (single isomer, unassigned) [Example 108, Ethyl 3-(3-amino-6-(5-(3-amino-1,1,1-trifluoro-2-hydroxy-3-oxopropan-2-yl)-2-methylphenyl)pyrazin-2-yl)cyclobutane-1-carboxylate], the 50% inhibitory concentration (IC50) was less than 500 nM in assay [1] (Table A4) and less than 2000 nM in assay [2] (Table A4).
As to `Cc1ccc(C(O)(C(=O)N(C)C)C(F)(F)F)cc1-c1cnc(N)c(-n2cncn2)n1` (centres unmarked) [Example 95, 2-(3-(5-Amino-6-(1H-1,2,4-triazol-1-yl)pyrazin-2-yl)-4-methylphenyl)-3,3,3-trifluoro-2-hydroxy-N,N-dimethylpropanamide trifluoroacetate], the IC50 in assay [1] (Table A3) and in assay [2] (Table A3) was less than 500 nM throughout.
In the case of `Cc1ccc(C(O)(C(N)=O)C(F)(F)F)cc1-c1cnc(N)c(C2CC(C(=O)NC(C)C)C2)n1` (single isomer, unassigned) [Example 111, 3-(3-Amino-6-(5-(3-amino-1,1,1-trifluoro-2-hydroxy-3-oxopropan-2-yl)-2-methylphenyl)pyrazin-2-yl)-N-isopropylcyclobutane-1-carboxamide], the IC50 in assay [1] (Table A4) was less than 100 nM.
`Cc1ccc(C(O)(C(N)=O)C(F)(F)F)cc1-c1cnc(N)c(C2CC(C(=O)NC(C)C)C2)n1` (single isomer, unassigned) [Example 110, 3-(3-Amino-6-(5-(3-amino-1,1,1-trifluoro-2-hydroxy-3-oxopropan-2-yl)-2-methylphenyl)pyrazin-2-yl)-N-isopropylcyclobutane-1-carboxamide]: the half-maximal inhibitory concentration (IC50) in assay [1] (Table A4) and in assay [2] (Table A4) was less than 500 nM each time.
Consider “2-(3-(5-amino-6-(2-methylthiazol-5-yl)pyrazin-2-yl)-4-methylphenyl)-3,3,3-trifluoro-2-hydroxypropanamide trifluoroacetate [Example 72]”, for which the IC50 in assay [1] (Table A3), in assay [2] (Table A3) and in assay [3] (Table A3) was less than 100 nM in each case.
In the case of `CNC(=O)c1ccc(-c2nc(-c3cc(C(O)(C(N)=O)C(F)(F)F)ccc3C)cnc2N)cn1` (centres unmarked) [Example 80, 5-(3-amino-6-(5-(3-amino-1,1,1-trifluoro-2-hydroxy-3-oxopropan-2-yl)-2-methylphenyl)pyrazin-2-yl)-N-methylpicolinamide bistrifluoroacetate], the IC50 was less than 500 nM in assay [2] (Table A3) and less than 1000 nM in assay [3] (Homo sapiens, Table A3).

The IC50 is the midpoint of a concentration-inhibition curve.
